Test results taken from patent publication US9809557B2 (priority 2011, dated 2017).
Values after ≈ are worked out from the molar mass of the structure shown.

Assays:
pKa value = assay type: physicochemical
[1] = Solubility of the prodrugs in PBS (67 mM phosphate buffer pH 7.4); settings: for solubility: 67 mM phosphate buffer (PBS); for solubility / solubility thermodynamic: pH 7.4, aqueous buffer, thermodynamic from solid; for solubility thermodynamic: 67 mM phosphate buffer pH 7.4 (PBS), 37 °C; for Sprodrug ± SD: PBS (67 mM phosphate buffer pH 7.4), 37° C.
Description: The determination of the solubility of a prodrug at different pH values of interest according to the present invention is carried by adding excess solid prodrug to a container containing a buffer solution with well-defined pH. The mixture is rotated at constant temperature until an equilibrium between solid prodrug and prodrug in solution has established (that is until the prodrug concentration in the supernatant remains constant). At each measurement the pH of the supernatant is controlled and, if needed, adjusted to the desired pH.
Suspensions of the prodrugs in 67 mM phosphate buffer pH 7.4 (PBS) were prepared by adding 10 mL PBS to approximately 5 mg prodrug. The suspensions were kept unstirred at 37° C. in an incubator hood. At appropriate time intervals over 23 days, about 500 μL samples were taken and after filtration (disposable syringe filters), the solutions were analyzed immediately by HPLC for parent drug and remaining prodrug. Quantitation of parent drug and prodrug was done from peak area measurements in relations to those of standards analysed by HPLC at the same conditions. […] For the diclofenac and ibuprofen prodrugs, the following method was used: Merck Hitachi L 6000 pump connected to Merck Hitachi 4250 UV detector. Reversed phase chromatography was performed using a C18 Gemini® RP column (150×4.6 mm, 5 μm particles) (Phenomenex, Torrance, Calif., USA) equipped with a SecurityGuard precolumn (Phenomenex, Torrance, Calif., USA). The flow rate was set at 1 mL/min and the column effluent was monitored at 230 nm. The mobile phase consisted of 35% (v/v) acetonitrile and 65% (v/v) of 0.1% (v/v) phosphoric acid pH 3.2. The retention times varied in the range of 3 to 30 min.
From the observed relatively stable concentration of dissolved prodrugs measured in the suspensions after 8-9 day up to 23 days, the solubilities of the prodrugs (Sprodrug) were determined.

[2] = Precipitation on addition of acidic prodrug solution to phosphate buffer pH 7.4; assay type: physicochemical
Description: At appropriate time intervals, samples were withdrawn and centrifuged for 5 min at 13,000 rpm and the supernatant was analysed by HPLC for DPX-4-0001 and formed ketorolac. The HPLC method described in Example 26 was applied. […] A slight increase in the ketorolac concentration is the result of pH dependent hydrolysis of the prodrug bond (FIG. 3).
The pH in the suspension was measured to 7.0.

[3] = Solubility at acidic pH, with and without DMA cosolvent; assay type: physicochemical
Description: A suspension of DPX-2-0007 (as hydrochloride salt) was formed by adding 30 mg to 4 mL demineralized water. After rotation of the suspension at 37° C. for 3 days, 1.0 mL sample was taken and after filtration (disposable syringe filters), the solution was diluted in methanol:water 1:1 and analyzed immediately by HPLC for prodrug. […] The pH in the solution was measured to 3.40. The following HPLC method was used: Merck Hitachi L 6200 pump connected to Merck Hitachi 4250 UV detector. Reversed phase chromatography was performed using a RP 18 Symmetry Shields® column (150×4.6 mm, 5 μm particles) equipped with a SecurityGuard precolumn (Phenomenex, Torrance, Calif., USA). […] The retention time of naproxen and DPX-2-0007 were 19 and 5.8 min, respectively.
A suspension of DPX-2-0006 was formed by adding 10 mg to 3 mL demineralized water, 0.05 mL 0.100 M HCl was added to obtain a pH of 3. After rotation of the suspension at 37° C. for 1 days, 0.5 mL sample was taken and after filtration (disposable syringe filters), the solution was diluted in methanol:water 1:1 and analyzed immediately by HPLC for prodrug. […] The HPLC method described in Example 29 was applied and the retention time of DPX-2-0006 was 14 min, respectively. N,N-dimethylacetamide (DMA) was added stepwise to the acidic suspension of DPX-2-0006 and the amount of DPX-2-000 dissolved in the presence of various volumes of DMA was determined after 1-3 days rotation at 37° C. as described above.

[4] = Stability of a suspension of DPX-4-0001 in 67 mM phosphate buffer pH 7.4 (comparison to SF); assay type: physicochemical; settings: suspension in 67 mM phosphate buffer pH 7.4, 37° C.
Description: (§1) The stability of a suspension of DPX-4-0001 in 80% human synovial fluid pH 7.4 (SF) from arthritis patients was investigated at 37° C. The reaction was initiated by adding 5 ml preheated SF to 2 mg DPX-4-0001. At appropriate time intervals, 400 μl samples were taken and centrifuged for 5 min at 13.000 rpm and 200 μl of the supernatant was deproteinised with 400 μl acetonitrile. After centrifugation for 4 min at 13000 rpm, the supernatant was analysed by HPLC for DPX-4-0001 as well as formed ketorolac. The HPLC method described in Example 26 was applied.
For comparison, the stability of a suspension of DPX-4-0001 in 67 mM phosphate buffer pH 7.4 was investigated by the same procedure at 37° C. […] Since the synovial disappearance half-lives of small-molecule drugs are in the range 2-5 h, the concentration of the active agent in the joint space is determined by the prodrug properties (i) solubility, (ii) degree of protein binding, and (iii) rate of cleavage of the prodrug bond, as well as (iv) the administered dose.

[5] = Stability of a suspension of prodrug in 80% human synovial fluid pH 7.4, formation of ketorolac; assay type: in vitro ADME; settings: after 21 hours
Description: as §1

[6] = Stability (cleavage to parent drug) of prodrug suspensions in PBS pH 7.4; assay type: physicochemical
Description: Suspensions of the prodrugs in 67 mM phosphate buffer pH 7.4 (PBS) were prepared by adding 10 mL PBS to approximately 5 mg prodrug. The suspensions were kept unstirred at 37° C. in an incubator hood. At appropriate time intervals over 23 days, about 500 μL samples were taken and after filtration (disposable syringe filters), the solutions were analyzed immediately by HPLC for parent drug and remaining prodrug. Quantitation of parent drug and prodrug was done from peak area measurements in relations to those of standards analysed by HPLC at the same conditions.
From the observed relatively stable concentration of dissolved prodrugs measured in the suspensions after 8-9 day up to 23 days, the solubilities of the prodrugs (Sprodrug) were determined. In this time interval, the rate of appearance of parent drug was determined and an apparent pseudo-zero-order rate constant (k0) was obtained. By assuming that the dissolution rates were much faster than the conversion of the prodrugs to the parent drug, pseudo first-order rate constants (khyd) for cleavage of the prodrugs were calculated according to:

[7] = Hydrolysis of the prodrugs in 80% human plasma; assay type: in vitro ADME; settings: hydrolysis in 80% human plasma at 37° C.; read-out: t1/2 in plasma
Description: At 37±0.5° C., the hydrolysis rate of the prodrugs was measured in 80% human plasma. An appropriate aliquot (20-100 μL) of 1 mg/ml prodrug solution in methanol was transferred to 5.0 ml of preheated plasma. At appropriate time intervals, 300 μl sample aliquots were withdrawn and transferred to 600 μl acetonitrile and mixed thoroughly. After centrifugation at 13500 rpm for 5 min, the supernatant was analyzed by HPLC for parent drug and remaining prodrug.

Structure (SMILES) | pKa (pKa value) | solubility [1] [µg/mL] | solubility thermodynamic [1] [µM] | Sprodrug ± SD [1] [µg/mL] | dissolved prodrug concentration after initial precipitation phase ([2]; 67 mM phosphate buffer pH 7.4, over 25 h) | precipitation after addition to buffer ([2]; 300 μl of solution in 0.01 M HCl added to 5 ml 67 mM phosphate buffer pH 7.4, no esterases) | solubility ([3]; buffer solution, pH 2.02, aqueous buffer, thermodynamic from solid, pH 2.02, hydrochloride salt) [µg/mL] | fold decrease in solubility from pH 2.02 to pH 7.4 ([3]; pH 2.02 vs pH 7.4) [fold] | degradation of prodrug (to ketorolac) in phosphate buffer [4] | final prodrug concentration in phosphate buffer [4] | concentration of dissolved prodrug in SF ([5]; 80% human synovial fluid pH 7.4, 37° C.) | conversion of the added amount of prodrug ([5]; 80% human synovial fluid, 37° C.) [%] | half-life at 0.5 mg/mL ([6]; 67 mM phosphate buffer (PBS), PBS pH 7.4, 37° C., read-out: t1/2 in PBS (converted)) [h] | apparent pseudo-zero-order rate constant k0 ([6]; appearance of parent drug in PBS pH 7.4 suspension, 37° C.) [M/day] | estimated pseudo first-order rate constant khyd ([6]; cleavage of prodrug in PBS pH 7.4, 37° C., calculated from k0 and Sprodrug) [day⁻¹] | half-life [7] [h] | precipitation after addition to buffer ([2]; 1.0 mL aqueous solution pH 3.4 added to 1.0 mL 67 mM phosphate buffer pH 7.4) | solubility at 3 days ([3]; demineralized water, 37 °C, pH 3.4, water, thermodynamic from solid, pH 3.4, hydrochloride salt in demineralized water, 3 days) [µg/mL] | fold increase in solubility at pH 3.4 compared to buffer pH 7.4 (PBS) ([3]; pH 3.4 vs pH 7.4) [fold]
CN(C)c1ccc(CCO)cc1 [IPU 1, 4-(hydroxyethyl)-N,N-dimethylaniline] | ~5.2 | – | – | – | – | – | – | – | – | – | – | – | – | – | – | – | – | – | –
CN(C)c1ccc(CCOC(=O)C2CCn3c(C(=O)c4ccccc4)ccc32)cc1 (centres unmarked) [DPX-4-0001, 4-(dimethylamino)phenethyl 5-benzoyl-2,3-dihydro-1H-pyrrolizine-1-carboxylate] | ~5.2 | ~0.05 (≈ 0.124 µM) | 0.1 ± 0.1 (≈ 0.0402 µg/mL) | 0.05 ± 0.03 | low and fairly constant concentration | a precipitation process was observed | 65 | 1300 | no significant degradation | about 8×10^−7 M | about 2.2×10^−5 M | 28 | – | – | – | – | – | – | –
COc1ccc2cc(C(C)C(=O)OCCn3ccnc3-c3ccccc3)ccc2c1 (centres unmarked) [DPX-2-0007, 2-(2-phenyl-1H-imidazol-1-yl)ethyl 2-(6-methoxynaphthalen-2-yl)propanoate] | – | 7 (≈ 17.5 µM) | 16 ± 1 (≈ 6.41 µg/mL) | 7 ± 1 | – | – | – | – | – | – | – | – | 264 | 1e-06 | 0.065 | 1.03 | a precipitation was immediately observed | 6800 | 1000
